From patent US8791132B2, “Compounds and methods for treatment of hypertension” (Medivation Technologies, Inc., priority 2011, dated 2014)
Where two headings read alike, the source gives them in different places.

Key:
[1] = target: T1, human recombinant adrenergic α2A receptor (Homo sapiens, UniProt P08913); test: Radioligand binding, adrenergic α2A ([3H]MK-912)
T1 construct: expressed in transfected cells; host or cells: insect Sf9 cells
T1 sequence (P08913 1-465): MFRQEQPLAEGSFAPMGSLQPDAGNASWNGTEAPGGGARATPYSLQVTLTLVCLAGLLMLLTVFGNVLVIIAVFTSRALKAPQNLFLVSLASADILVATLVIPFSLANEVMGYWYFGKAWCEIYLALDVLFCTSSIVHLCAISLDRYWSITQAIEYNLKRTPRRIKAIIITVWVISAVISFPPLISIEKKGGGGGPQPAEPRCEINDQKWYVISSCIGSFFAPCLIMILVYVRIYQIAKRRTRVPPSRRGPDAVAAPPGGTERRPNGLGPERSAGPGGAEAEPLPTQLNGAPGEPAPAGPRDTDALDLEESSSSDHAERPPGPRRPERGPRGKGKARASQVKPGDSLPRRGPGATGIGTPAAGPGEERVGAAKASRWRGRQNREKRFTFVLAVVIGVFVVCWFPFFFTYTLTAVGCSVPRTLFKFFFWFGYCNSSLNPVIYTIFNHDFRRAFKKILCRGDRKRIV
How it was run: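 In 50 mM Tris-HCl (pH 7.4) containing 12.5 mM MgCl2 and 2 mM EDTA, Sf9-expressed receptor was exposed to test compound plus 1 nM [3H]MK-912 at 25 °C for 60 min. Specific binding, corrected using 10 μM WB-4101, was quantified by filtration and counting and expressed as percent inhibition.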

[2] = target: T2, human recombinant adrenergic α1D receptor (Homo sapiens, UniProt P25100); test: Radioligand binding, adrenergic α1D ([3H]Prazosin); settings: for Percentage inhibition of ligand binding, Adrenergic α1D: 0.1 µM
T2 construct: expressed in transfected cells; host or cells: HEK-293
T2 sequence (P25100 1-572): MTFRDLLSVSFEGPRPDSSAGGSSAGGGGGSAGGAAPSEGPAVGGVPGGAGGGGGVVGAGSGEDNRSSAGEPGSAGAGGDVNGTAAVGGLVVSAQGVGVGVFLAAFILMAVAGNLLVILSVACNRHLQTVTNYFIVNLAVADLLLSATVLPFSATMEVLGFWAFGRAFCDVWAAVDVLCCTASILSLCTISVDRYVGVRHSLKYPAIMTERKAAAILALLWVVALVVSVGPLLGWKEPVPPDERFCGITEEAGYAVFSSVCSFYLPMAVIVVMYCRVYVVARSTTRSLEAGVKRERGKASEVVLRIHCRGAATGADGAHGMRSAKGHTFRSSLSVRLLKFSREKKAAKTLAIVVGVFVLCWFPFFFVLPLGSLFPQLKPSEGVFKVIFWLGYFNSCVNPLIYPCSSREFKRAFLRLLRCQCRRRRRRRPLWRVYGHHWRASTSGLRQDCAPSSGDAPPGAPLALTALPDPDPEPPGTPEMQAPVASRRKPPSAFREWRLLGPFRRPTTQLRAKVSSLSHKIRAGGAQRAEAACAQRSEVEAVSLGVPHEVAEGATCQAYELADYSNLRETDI
Procedure: Compounds were incubated with 0.6 nM [3H]Prazosin for 60 min at 25° C. Non-specific binding was estimated in the presence of 10 μM phentolamine. Receptor proteins were filtered and washed, the filters were then counted to determine [3H]Prazosin specifically bound. […] Biochemical assay results are presented as the percent inhibition of specific binding in Table B1.

[3] = target: T3, human recombinant adrenergic α2B receptor (Homo sapiens, UniProt P18089); test: Radioligand binding, adrenergic α2B ([3H]Rauwolscine)
T3 construct: expressed in transfected cells; host or cells: CHO-K1
T3 sequence (P18089 1-450): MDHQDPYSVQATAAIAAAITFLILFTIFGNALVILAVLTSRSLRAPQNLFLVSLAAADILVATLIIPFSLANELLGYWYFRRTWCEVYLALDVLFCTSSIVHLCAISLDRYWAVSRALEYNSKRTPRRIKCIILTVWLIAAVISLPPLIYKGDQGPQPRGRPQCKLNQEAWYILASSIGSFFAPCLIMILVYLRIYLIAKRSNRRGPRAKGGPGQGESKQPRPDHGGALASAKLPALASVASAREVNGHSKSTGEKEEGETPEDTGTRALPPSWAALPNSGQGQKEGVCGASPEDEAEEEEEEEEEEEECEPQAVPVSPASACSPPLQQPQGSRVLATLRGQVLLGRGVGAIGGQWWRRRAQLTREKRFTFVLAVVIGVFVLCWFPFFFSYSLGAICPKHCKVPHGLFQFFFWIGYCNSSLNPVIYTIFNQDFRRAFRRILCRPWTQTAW
How it was run: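 Receptor expressed in CHO-K1 cells, assayed in 50 mM Tris-HCl pH 7.4 with 12.5 mM MgCl2, 1 mM EDTA and 0.2% BSA. Compounds were incubated with 2.5 nM [3H]Rauwolscine for 60 min at 25° C; 10 μM Prazosin defined non-specific binding. Filter counting gave percent inhibition of specific binding.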

[4] = target: T4, rat adrenergic α1B receptor (Rattus norvegicus, UniProt P15823); test: Radioligand binding, adrenergic α1B ([3H]Prazosin)
T4 construct: rat adrenergic α1B receptor obtained from Wistar Rat liver; from tissue; host or cells: Wistar rat liver
T4 sequence (P15823 1-515): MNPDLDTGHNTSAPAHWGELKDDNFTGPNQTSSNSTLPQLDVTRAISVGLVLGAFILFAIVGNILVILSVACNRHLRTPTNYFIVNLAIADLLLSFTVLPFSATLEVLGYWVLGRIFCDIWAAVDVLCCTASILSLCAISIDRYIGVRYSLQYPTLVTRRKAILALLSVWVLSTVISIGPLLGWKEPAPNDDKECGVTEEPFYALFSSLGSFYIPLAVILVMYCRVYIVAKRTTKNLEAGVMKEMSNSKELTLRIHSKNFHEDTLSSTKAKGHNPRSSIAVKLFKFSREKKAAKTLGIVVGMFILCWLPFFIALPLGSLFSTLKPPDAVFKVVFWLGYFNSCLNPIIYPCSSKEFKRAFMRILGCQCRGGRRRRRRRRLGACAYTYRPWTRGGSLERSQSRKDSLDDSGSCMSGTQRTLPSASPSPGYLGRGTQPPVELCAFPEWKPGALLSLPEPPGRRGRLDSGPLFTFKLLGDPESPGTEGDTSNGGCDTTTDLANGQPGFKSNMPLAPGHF
How it was run: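 Filter binding with Wistar rat liver α1B preparation: test compound plus 0.25 nM [3H]prazosin, 1 h at 25° C in modified Tris-HCl buffer pH 7.4.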

[5] = 0.1 μM compound, read-out: Percentage inhibition of ligand binding, Adrenergic α2A
[6] = 0.1 μM compound, read-out: Percentage inhibition of ligand binding, Adrenergic α1D
[7] = 0.1 μM compound, read-out: Percentage inhibition of ligand binding, Adrenergic α2B
[8] = 0.1 μM compound, read-out: Percentage inhibition of ligand binding, Adrenergic α1B
[9] = read-out: Percentage inhibition of ligand binding, Adrenergic α2A (0.1 μM), compound at 0.1 μM, [3H]MK-912, repeat datapoints each shown
[10] = read-out: Percentage inhibition of ligand binding, Adrenergic α1D (0.1 μM), compound at 0.1 μM, [3H]Prazosin, repeat datapoints each shown
[11] = read-out: Percentage inhibition of ligand binding, Adrenergic α2B (0.1 μM), compound at 0.1 μM, [3H]Rauwolscine, repeat datapoints each shown
[12] = read-out: Percentage inhibition of ligand binding, Adrenergic α1B (0.1 μM), compound at 0.1 μM, [3H]Prazosin, repeat datapoints each shown

| SMILES | inhibition at 0.1 µM [1, 9] [%] | inhibition at 0.1 µM [2, 10] [%] | inhibition at 0.1 µM [3, 11] [%] | inhibition at 0.1 µM [4, 12] [%] | also measured |
| --- | --- | --- | --- | --- | --- |
| Cc1ccc2c(c1)c1c(n2C#Cc2cccc3cnccc23)CCN(C)C1 [compound 313, 5-isoquinolin-5-ylethynyl-2,8-dimethyl-2,3,4,5-tetrahydro-1H-pyrido[4,3-b]indole] |  |  |  |  | inhibition at 0.1 µM [1, 5]: 73%; inhibition at 0.1 µM [2, 6]: 53%; inhibition at 0.1 µM [3, 7]: 73%; inhibition at 0.1 µM [4, 8]: 92% |
| Cc1ccc(CCn2c3c(c4cccnc42)C2CCCN2CC3)cn1 (centres unmarked) [IV-4] | -3 | 15 | 56 | 2 |  |
| C/C(=C\n1c2c(c3cc(Cl)ccc31)CN(C)C(C)C2)c1ccc(C)nc1 (centres unmarked) [compound 257] |  |  |  |  | inhibition at 0.1 µM [1, 5]: 84%; inhibition at 0.1 µM [2, 6]: 24%; inhibition at 0.1 µM [3, 7]: 100%; inhibition at 0.1 µM [4, 8]: 51% |
| Cc1ccc2c(c1)c1c(n2CC(=O)c2ccc(F)cc2)CCN(C)C1 [compound 94] | 11 | 10 | 66 | 40 |  |
| Cc1ccc(CCn2c3c(c4cc(Cl)ccc42)CN(C)CC3)cc1 [compound 208] | 101 |  | 97 |  | inhibition at 0.03 µM ([2]; read-out: Percentage inhibition of ligand binding, Adrenergic α1D (0.03 μM), compound at 0.03 μM, [3H]Prazosin, repeat datapoints each shown): 41%; inhibition at 0.03 µM ([4]; read-out: Percentage inhibition of ligand binding, Adrenergic α1B (0.03 μM), compound at 0.03 μM, [3H]Prazosin, repeat datapoints each shown): 60% |
| Cc1ccc2c(c1)c1c(n2CC(C)c2ccc(C)nc2)CCN(C)C1 (single isomer, unassigned) [289b] |  |  |  |  | Percentage inhibition of ligand binding, Adrenergic α2A ([1]; 0.1 μM compound, 0.1 µM): 53%; Percentage inhibition of ligand binding, Adrenergic α1D ([2]; 0.1 μM compound): −2%; Percentage inhibition of ligand binding, Adrenergic α2B ([3]; 0.1 μM compound): 54%; Percentage inhibition of ligand binding, Adrenergic α1B ([4]; 0.1 μM compound, 0.1 µM): 12% |
| C/C(=C\n1c2c(c3cc(C)ccc31)CN(C)CC2)c1ccc2ccccc2c1 [compound 270] |  |  |  |  | inhibition at 0.1 µM [1, 5]: 96%; inhibition at 0.1 µM [2, 6]: 66%; inhibition at 0.1 µM [3, 7]: 76%; inhibition at 0.1 µM [4, 8]: 50% |
| C/C(=C\n1c2c(c3cc(Cl)ccc31)CCN(C)CC2)c1ccc(Cl)cc1Cl [compound 229] | 53 | 8 | 90 | 17 |  |
| CCCc1ccc(/C(C)=C/n2c3c(c4cc(C)ccc42)CN(C)CC3)cn1 [compound 329] |  |  |  |  | inhibition at 0.1 µM [1, 5]: 60%; inhibition at 0.1 µM [2, 6]: 78%; inhibition at 0.1 µM [3, 7]: 104%; inhibition at 0.1 µM [4, 8]: 68% |
| COc1ccc(C(C)(O)Cn2c3c(c4cc(C)ccc42)CN(C)CC3)cc1 (centres unmarked) [254b] |  |  |  |  | Percentage inhibition of ligand binding, Adrenergic α2A ([1]; 0.1 μM compound, 0.1 µM): 57%; Percentage inhibition of ligand binding, Adrenergic α1D ([2]; 0.1 μM compound): 22%; Percentage inhibition of ligand binding, Adrenergic α2B ([3]; 0.1 μM compound, 0.1 µM): 79%; Percentage inhibition of ligand binding, Adrenergic α1B ([4]; 0.1 μM compound, 0.1 µM): 63% |
| COc1ccc(C(C)(O)Cn2c3c(c4cc(C)ccc42)CN(C)CC3)cc1F (centres unmarked) [II-163] | 41 | 28 | 86 | 66 |  |
| C/C(=C\n1c2c(c3cc(C)ccc31)CCN(C)CC2)c1ccc(Cl)cc1Cl [compound 227] | 66 | -2 | 98 | 21 |  |
| Cc1ccc2c(c1)c1c(n2CCc2ccc3c(c2)CCCC3)CCN(C)C1 [compound 332, 2,8-dimethyl-5-[2-(5,6,7,8-tetrahydro-naphthalen-2-yl)-ethyl]-2,3,4,5-tetrahydro-1H-pyrido[4,3-b]indole] |  |  |  |  | inhibition at 0.1 µM [1, 5]: 94%; inhibition at 0.1 µM [2, 6]: 51%; inhibition at 0.1 µM [3, 7]: 86%; inhibition at 0.1 µM [4, 8]: 41% |
| CNC(=O)c1ccc(/C(C)=C/n2c3c(c4cc(C)ccc42)CN(C)CC3)cn1 [compound 122] | 13 | 84 | 96 | 51 |  |
| Cc1ccc(C(C)(O)Cn2c3c(c4cc(Cl)ccc42)CN(C)CC3)cn1 (centres unmarked) [compound 93] |  | 6 | 87 |  | Percentage inhibition of ligand binding, Adrenergic α2A (0.1 μM) ([1]; compound at 0.1 μM, [3H]MK-912, repeat datapoints each shown, 0.1 µM): 21%; Percentage inhibition of ligand binding, Adrenergic α1B (0.1 μM) ([4]; compound at 0.1 μM, [3H]Prazosin, repeat datapoints each shown, 0.1 µM): 25% |
| C/C(=C/n1c2c(c3cc(Cl)ccc31)CCN(C)CC2)c1ccc(Cl)cc1Cl [compound 228] | 77 | 19 | 42 | 64 |  |
| C/C(=C\n1c2c(c3cc(C)ccc31)C1CCC(C2)N1C)c1ccccc1F (centres unmarked) [compound 231] | 65 | 26 | 87 | 48 |  |
